According to US11679097B2, “Combination product containing limonoid compound and biguanide compound” (ZHEJIANG YANGSHENGTANG INSTITUTE OF NATURAL MEDICATION CO., …, priority 2017, dated 2023):

Tested on: db/db mice
Assay: Blood glucose and leptin in mouse model of type II diabetes (Example 2)
Format: in vivo
Details: single administration 0.04 g/kg per day by gavage, two weeks
Description: Effects of a Limonoid Compound, Metformin or a Combination Thereof on Blood Glucose and Leptin in a Mouse Model of Type II Diabetes In the present example, db/db mice (line name BKS.Cg-Dock7^m+/+ Lepr^db/Nju) were used to perform hypoglycemic efficacy evaluation test of animals (blood glucose level and leptin). […] Conditions for experimental feeding: as type II diabetes model mice, 6-week-old SPF-grade db/db mice were purchased from the Nanjing Model Biology Institute, and subjected to experimental feeding after 7 days of preliminary feeding. […] The experimental feed was mouse growth-stable feed (GB […]), and the daily feeding and management of the animals were under the responsibility of the animal security department, which provided the animals with sufficient padding and fresh drinking water daily. Experimental grouping: male db/db mice (20±2 g) were selected, and 18 male mice in each group were tested. […] Gavage doses: obacunone at a dose of 0.04 g/kg was gavaged per day for the obacunone group, isoobacunoic acid at a dose of 0.04 g/kg was gavaged per day for the isoobacunoic acid group, obacunone 17-β-D-glucopynoside at a dose of 0.04 g/kg was gavaged per day for the obacunone 17-β-D-glucopynoside group, metformin at a dose of 0.04 g/kg was gavaged per day for the metformin group, obacunone at a dose of 0.02 g/kg and metformin at a dose of 0.02 g/kg were simultaneously gavaged per day for the obacunone/metformin combination group, isoobacunoic acid at a dose of 0.02 g/kg and metformin at a dose of 0.02 g/kg were simultaneously gavaged per day for the isoobacunoic acid/metformin combination group, obacunone 17-β-D-glucopynoside at a dose of 0.02 g/kg and metformin at a dose of 0.02 g/kg were simultaneously gavaged per day for the obacunone 17-β-D-glucopynoside/metformin combination group, the gavage volume was 10 mL/kg, and the normal group and the model group were administrated with 10 mL/kg of distilled water. […] The data were expressed as mean and standard deviation. The data before and after were analyzed by t-test, and P<0.05 was considered statistically significant.

SMILES: CN(C)C(=N)NC(=N)N [Metformin, N,N-dimethylimidodicarbonimidic diamide, reference compound]
- Leptin (serum, Elisa): 34.49 ± 3.38 pg/mL
- Blood glucose value (1 h after last administration): 15.5 ± 3.6 mmol/L
